How the values were obtained:
[1] = target: T1, Prostaglandin G/H synthase 1 (Ovis aries, UniProt P05979); experiment: Inhibition of COX1 in ram seminal vesicle microsomes assessed as reduction of PGE2 formation; parameters: species or system Microsome
T1 sequence (P05979 whole entry): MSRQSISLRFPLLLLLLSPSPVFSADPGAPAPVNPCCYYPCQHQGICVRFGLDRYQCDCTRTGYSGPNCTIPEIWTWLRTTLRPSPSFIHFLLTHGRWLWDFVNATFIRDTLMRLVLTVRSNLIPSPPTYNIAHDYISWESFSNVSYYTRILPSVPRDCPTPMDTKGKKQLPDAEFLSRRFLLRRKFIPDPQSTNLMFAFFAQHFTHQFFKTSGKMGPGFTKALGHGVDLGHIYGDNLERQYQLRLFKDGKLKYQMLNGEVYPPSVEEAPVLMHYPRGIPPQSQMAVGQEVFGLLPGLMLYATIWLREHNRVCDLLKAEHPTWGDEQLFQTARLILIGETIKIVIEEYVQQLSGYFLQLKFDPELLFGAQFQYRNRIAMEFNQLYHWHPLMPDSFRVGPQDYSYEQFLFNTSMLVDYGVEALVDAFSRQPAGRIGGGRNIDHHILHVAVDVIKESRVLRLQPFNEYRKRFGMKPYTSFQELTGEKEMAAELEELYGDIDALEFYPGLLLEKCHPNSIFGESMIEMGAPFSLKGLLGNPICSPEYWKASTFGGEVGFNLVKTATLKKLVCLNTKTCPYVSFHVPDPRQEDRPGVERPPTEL

[2] = target: T2, Prostaglandin G/H synthase 1 (Ovis aries) (UniProt P05979); conditions: Seminal vesicle, Microsome, 5 uM
T2 sequence (whole entry): T1 sequence (P05979 whole entry)
Description: Inhibition of COX1 in ram seminal vesicle microsomes assessed as reduction of PGE2 formation at 5 uM

SMILES: COc1cc2cc(C(C)(C)O)oc2c2c1C=COC=C2
- IC50 [1]: 30.4 µM

SMILES: COc1cc2c(c3c1C=COC=C3)O[C@@H](C(C)(C)O)C2 [PERILLOXIN]
- IC50 [1]: 23.2 µM

SMILES: COc1ccc2c(c1)c(CC(=O)O)c(C)n2C(=O)c1ccc(Cl)cc1
- inhibition [2]: 0.2%
